The test system of series [1] is Cleaved-Caspase 3 and Caspase 3. In words: Western blot of Caspase 3 and Cleaved-Caspase 3 in A549 cells. Type of series: cell-based, human. Here is the method:
Meanwhile, we also detected the expression of Cleaved-Caspase 3 and Caspase 3 after different treatment concentrations to explore the mechanism of compound 11b inducing cell apoptosis.
(§1) The cells were plated in 6-well plates and incubated with different concentrations of compound 11b for a specified time. The cells were then collected, and tested using a standard western blot as described before.
On the technique in general: Immunoblotting shows a protein as a band on a membrane.

Series [2] deals with OVCAR-3. In words: MTT assay, anti-proliferative effect on OVCAR-3 cells. The format is cell-based, human. The following applies: Homo sapiens, OVCAR-3, 72 h, read-out: IC50 OVCAR-3. Here is the method: (§2) A549, OVCAR-3, HCT-116, and MCF-7 were purchased from American type culture collection (ATCC, USA). […] And all cell lines used in the experiment were tested for mycoplasma contamination every two weeks.
(§3) A549, OVCAR-3, HCT-116, and MCF-7 cells were seeded in 96-well plates, and then treated with target compounds for 72 h. Then, 20 µL MTT (5 mg/mL, in PBS) was added into each well, and dissolved in 150 µL DMSO after incubation for 4 h. Finally, the absorbance was measured with microplate reader (490 nm).
Background: Formazan colour is commonly taken as a measure of viable cells.

Series [3] concerns IOSE80. In words: Selectivity index (SI) versus IOSE80 normal cells. Type of series: cell-based. To be noted: SI = CC50/IC50; Human normal ovarian epithelial cells; means ± SD.
Series [4] has as its target T1, PARP-2 (Homo sapiens, UniProt Q9UGN5).
T1 construct: purchased BPS Bioscience, USA 80,581
In words: PARP-2 enzyme inhibition, colorimetric 96-well PARP assay kit. The format is biochemical. To be noted: in vitro enzyme, Mean ± SD.
Protocol: (§4) The PARP-1 and PARP-2 inhibition assays were performed by the colorimetric 96-well PARP assay kits provided by BPS Bioscience, USA.

The subject of series [5] is A549 cells. The experiment in a line: Annexin-V/PI apoptosis assay by flow cytometry. The format is cell-based, human. The following applies: 48 h, P < 0.001. As for the experimental part: PARP-1 inhibitors have been reported to induce further apoptosis of cancer cells, which was also confirmed by our previous studies. An annexin-V/PI binding assay was conducted in A549 cells to evaluate the capacity of compound 11b to induce apoptosis in cancer cells. […] (Fig. 4).
A549 cells were cultured in 6-well plates (3.0 × 10^5/well), and treated with DMSO (1%) or compound 11b for 48 h. The cells were then collected, washed with PBS, and stained with FITC-Annexin-V and PI (Promega Corporation, USA). Finally, the apoptosis of A549 cells was detected by flow cytometry (Becton Dickinson and Company, USA; FACS Calibur).

The subject of series [6] is HTB-125. The experiment in a line: Selectivity index (SI) versus HTB-125 normal cells. The format is cell-based. To be noted: SI = CC50/IC50; Human normal breast cell; means ± SD.
Series [7] concerns MCF-7. The experiment in a line: MTT assay, anti-proliferative effect on MCF-7 cells. Type of series: cell-based, human. To be noted: Homo sapiens, MCF7, 72 h, read-out: IC50 MCF-7. Here is the method: as §2, §3
Series [8] has as its system HIEC. The experiment in a line: Selectivity index (SI) versus HIEC normal cells. The format is cell-based. The following applies: SI = CC50/IC50; Human normal intestinal epithelial cells; means ± SD.
The target in series [9] is T2, PARP-1 (Homo sapiens, UniProt P09874).
T2 construct: purchased BPS Bioscience, USA 80,580
T2 sequence (P09874 whole entry): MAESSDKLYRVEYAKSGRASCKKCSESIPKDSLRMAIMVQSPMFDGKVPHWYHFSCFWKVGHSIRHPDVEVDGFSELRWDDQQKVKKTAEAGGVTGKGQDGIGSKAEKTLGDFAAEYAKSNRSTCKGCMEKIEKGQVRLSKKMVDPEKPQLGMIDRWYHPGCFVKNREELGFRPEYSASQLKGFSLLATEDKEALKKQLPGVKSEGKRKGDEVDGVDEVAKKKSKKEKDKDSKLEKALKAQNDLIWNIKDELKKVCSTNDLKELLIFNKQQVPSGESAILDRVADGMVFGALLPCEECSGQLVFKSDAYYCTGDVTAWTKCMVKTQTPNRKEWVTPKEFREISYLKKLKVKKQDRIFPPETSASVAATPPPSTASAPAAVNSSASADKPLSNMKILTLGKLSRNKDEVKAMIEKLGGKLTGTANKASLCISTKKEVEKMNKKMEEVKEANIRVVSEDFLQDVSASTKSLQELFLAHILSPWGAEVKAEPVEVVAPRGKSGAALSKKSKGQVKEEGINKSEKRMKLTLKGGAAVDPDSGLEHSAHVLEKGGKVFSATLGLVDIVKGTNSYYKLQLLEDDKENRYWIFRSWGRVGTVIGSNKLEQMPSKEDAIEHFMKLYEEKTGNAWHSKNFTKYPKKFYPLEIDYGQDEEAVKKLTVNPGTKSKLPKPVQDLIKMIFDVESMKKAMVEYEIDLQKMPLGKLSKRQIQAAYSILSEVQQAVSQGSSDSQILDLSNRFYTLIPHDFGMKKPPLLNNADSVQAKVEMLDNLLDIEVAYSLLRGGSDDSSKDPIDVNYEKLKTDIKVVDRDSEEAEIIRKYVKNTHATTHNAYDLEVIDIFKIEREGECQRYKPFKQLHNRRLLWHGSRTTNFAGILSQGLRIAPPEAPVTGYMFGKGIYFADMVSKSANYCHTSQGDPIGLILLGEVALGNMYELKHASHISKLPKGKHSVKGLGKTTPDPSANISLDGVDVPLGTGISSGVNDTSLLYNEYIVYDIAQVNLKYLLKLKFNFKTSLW
The experiment in a line: PARP-1 enzyme inhibition, colorimetric 96-well PARP assay kit. The format is biochemical. The following applies: in vitro enzyme, Mean ± SD.
Protocol: as §4

Series [10] relates to HPAEpiC. The experiment in a line: Selectivity index (SI) versus HPAEpiC normal cells. To be noted: SI = CC50/IC50; Human normal alveolar epithelial cells; means ± SD. The format is cell-based.
For series [11], the system named is PAR. In words: Western blot of PAR in A549 cells. The format is cell-based, human. The following applies: best effect at 4.0 µM, P < 0.001. Here is the method: PARylation is a critical post-translational modification in which ADP-ribose units are added to a wide array of target proteins by PARP-1 [33–35]. PAR is the active product of PARP-1, and the biosynthesis of PAR will be reduced while PARP-1 is inhibited. Here, we used the western blot to evaluate PAR levels and PARP-1 expression.
as §1

Series [12] concerns HCT-116. The experiment in a line: MTT assay, anti-proliferative effect on HCT-116 cells. Type of series: cell-based, human. To be noted: Homo sapiens, HCT-116, 72 h, read-out: IC50 HCT-116. As for the experimental part: as §2, §3
Series [13] has as its system A549. The experiment in a line: MTT assay, anti-proliferative effect on A549 cells. Type of series: cell-based, human. The following applies: Homo sapiens, A549, 72 h, read-out: IC50 A549. As for the experimental part: as §2, §3

Values joined by “and” are separate entries in the source; they are usually repeats but may differ in a detail not shown here. Identical values can stand only once.

T1 sequence (Q9UGN5 whole entry): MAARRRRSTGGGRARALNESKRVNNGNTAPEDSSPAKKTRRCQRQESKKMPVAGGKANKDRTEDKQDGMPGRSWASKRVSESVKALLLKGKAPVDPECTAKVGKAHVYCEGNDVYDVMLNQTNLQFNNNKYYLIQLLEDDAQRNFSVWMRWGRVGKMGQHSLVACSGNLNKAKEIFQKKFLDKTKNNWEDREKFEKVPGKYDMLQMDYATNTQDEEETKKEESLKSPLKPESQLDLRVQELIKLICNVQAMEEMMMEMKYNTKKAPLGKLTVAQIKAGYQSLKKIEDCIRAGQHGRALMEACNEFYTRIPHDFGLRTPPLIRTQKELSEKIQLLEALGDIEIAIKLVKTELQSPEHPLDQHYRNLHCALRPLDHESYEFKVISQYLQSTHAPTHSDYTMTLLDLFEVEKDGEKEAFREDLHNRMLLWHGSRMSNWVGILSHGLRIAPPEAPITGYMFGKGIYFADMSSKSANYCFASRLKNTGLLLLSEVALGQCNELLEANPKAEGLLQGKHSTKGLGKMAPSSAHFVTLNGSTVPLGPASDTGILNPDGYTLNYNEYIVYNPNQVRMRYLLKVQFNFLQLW

Take `OC1CCN(Cc2cn(-c3ccccc3F)nn2)C2(CCCCC2)c2ccccc21` (stereo not drawn) [Compound 11b, 2-((1-(2-fluorophenyl)-1 H-1,2,3-triazol-4-yl)methyl)-2,3,4,5-tetrahydrospiro[benzo[c]azepine-1,1’-cyclohexan]-5-ol]: the “expression of Caspase 3” value in series [1] is listed as “decreased with the increase of compound 11b concentration”. Further, the “ratio of Cleaved-Caspase 3/Caspase 3” value in series [1] was “best at 4.0 µM”. Moreover, the IC50 in series [2] was determined as 4.02 ± 0.24 µM; in [4] it was 0.0326 ± 0.00197 µM; in [7], 9.21 ± 2.54 µM; in [9], 0.0192 ± 0.00163 µM; in series [12], 7.45 ± 1.98 µM; in [13], 1.95 ± 0.33 µM. In series [3], the “SI IOSE80” value is recorded as 10.57 ± 2.01. In addition, the “induction of apoptosis in A549 cells” value in series [5] is on record as “induce apoptosis in a dose-dependent manner”. For the same compound, the “SI HTB-125” value in series [6] came to 7.06 ± 1.32. Further, the “SI HIEC” value in series [8] stood at 6.12 ± 1.76. For the same compound, the “SI HPAEpiC” value in series [10] was 15.38 and 15.38 ± 0.97. The “biosynthesis of PAR” value in series [11] is listed as “reduce the biosynthesis of PAR”.

Regarding `Oc1ccc(-n2cc(CN3CCC(O)c4ccccc4C34CCCCC4)nn2)cc1` (stereo not drawn) [Compound 11s, 2-((1-(4-hydroxyphenyl)-1 H-1,2,3-triazol-4-yl)methyl)-2,3,4,5-tetrahydrospiro[benzo[c]azepine-1,1’-cyclohexan]-5-ol], the melting point was 171.1 to 172.3 °C. Moreover, the IC50 in series [2] is > 50 µM. In series [7], the IC50 is > 50 µM. The IC50 in [12] is > 50 µM. Besides, the IC50 in [13] was > 50 µM.

The compound `Oc1ccccc1-n1cc(CN2CCC(O)c3ccccc3C23CCCCC3)nn1` (stereo not drawn) [Compound 11q, 2-((1-(2-hydroxyphenyl)-1 H-1,2,3-triazol-4-yl)methyl)-2,3,4,5-tetrahydrospiro[benzo[c]azepine-1,1’-cyclohexan]-5-ol] had a melting point of 156.8 to 157.2 °C. The IC50 in [2] was found to be 13.2 ± 4.09 µM. Also, in series [7], the IC50 is 8.72 ± 0.71 µM. Moreover, the IC50 in series [12] is > 50 µM. Also, the IC50 in series [13] is 10.6 ± 1.2 µM.

For orientation: IC50 means the concentration needed to halve the response being measured. As usually defined, the melting point is the temperature, or range, at which the solid turns liquid.
